According to ChEMBL document CHEMBL1150671, “Online analysis of xestodecalactones A-C, novel bioactive metabolites from the fungus Penicillium cf. montanense and their subsequent isolation from the sponge Xestospongia exigua” (2002):
Activity calls are given as the source filed them. The calls are words filed in the database; no cut-off is given here.

Columns and labels:
Bacillus subtilis = assay: Antibacterial activity against Bacillus subtilis 168; type: functional, organism-based; settings: subsp. subtilis str. 168
Escherichia coli [1] = assay: Antibacterial activity against Escherichia coli ATCC 25922; type: functional, organism-based
Escherichia coli [2] = assay: Antibacterial activity against Escherichia coli HB 101; type: functional, organism-based
Staphylococcus aureus = assay: Antibacterial activity against Staphylococcus aureus ATCC 25923; type: functional, organism-based
Candida albicans [3] = assay: Antifungal activity against Candida albicans at 50 umol by agar diffusion assay; type: functional
Candida albicans [4] = assay: Antifungal activity against Candida albicans at 20 umol by agar diffusion assay; type: functional
Candida albicans [5] = assay: Antifungal activity against Candida albicans at 100 umol by agar diffusion assay; type: functional

SMILES	Activity (Bacillus subtilis)	Activity (Escherichia coli [1])	Activity (Escherichia coli [2])	Activity (Staphylococcus aureus)	inhibition zone (IZ) (Candida albicans [3]) [mm]	inhibition zone (IZ) (Candida albicans [4]) [mm]	inhibition zone (IZ) (Candida albicans [5]) [mm]
C[C@@H]1CCCC(=O)c2c(O)cc(O)cc2CC(=O)O1	inactive	inactive	inactive	inactive			
C[C@H]1CCC[C@H](O)CC(=O)c2c(O)cc(O)cc2CC(=O)O1	inactive	inactive	inactive	inactive			
C[C@@H]1C[C@H](O)CC(=O)c2c(O)cc(O)cc2CC(=O)O1 [XESTODECALACTONE B]	inactive	inactive	inactive	inactive	12	7	25
C[C@H]1CCCCCC(=O)c2c(O)cc(O)cc2CC(=O)O1	inactive	inactive	inactive	inactive			
C[C@H]1CCC[C@@H](O)CC(=O)c2c(O)cc(O)cc2CC(=O)O1	inactive	inactive	inactive	inactive			
C[C@@H]1C[C@H](O)CCCC(=O)CC(=O)O1	inactive	inactive	inactive	inactive			
CC1C/C=C/C(=O)c2c(O)cc(O)cc2CC(=O)O1 (centres undefined)	inactive	inactive	inactive	inactive			
C[C@@H]1CCCC(=O)C[C@@H](O)CC(=O)O1	inactive	inactive	inactive	inactive			
C[C@H]1C[C@H](O)CC(=O)c2c(O)cc(O)cc2CC(=O)O1	inactive	inactive	inactive	inactive			
